# Measurements taken from patent publication US12012421B2, “Solid forms of [(1S)-1-[(2S,4R,5R)-5-(5-amino-2-oxo-thiazolo[4,5-d]pyrimidin-3-yl)-4-hydroxy-tetrahydrofuran-2-yl]propyl] acetate” (Hoffmann-La Roche Inc., priority 2018, dated 2024).
# Where two headings read alike, the source gives them in different places.
# Columns and labels:
# [1] = Physical stability of solid forms in stability chamber, solid form checked by XRPD; format: physicochemical; details: for Physical stability (solid form by XRPD compared with initial solid form): 40° C./75%-RH, 1 month; for Stability compared with Form Amorphous: comparison in words, accelerated storage 40° C./75%-RH
# Procedure: 40 mg compound (I) in different solid forms were stored in a stability chamber with temperature and humidity controlled at 40° C. and 75%-RH, respectively. After 1 month, the samples were analyzed by XRPD to check their solid form and compared with their initial solid form.
# [2] = Apparent solubility study in bio-relevant media; format: physicochemical; details: for Solubility: 25° C.; for Solubility / solubility at 24 h: 24 hours; for solubility at 24 h: 25 °C, thermodynamic from solid; for Apparent solubility compared with Form Amorphous: comparison in words
# Procedure: Apparent solubility was determined by suspending 5 mg of compound (I) in different bio-relevant media including pH buffers, SGF, FaSSIF, and FeSSIF. The suspensions were equilibrated at 25° C. for 24 hours. The suspensions were then filtered through a 0.22 μm PVDF filter into a 2-mL HPLC vial. The quantitation of the filtrate was conducted by HPLC with reference to a standard solution.
# [3] = Single dose PK (SDPK) study, oral suspension; format: in vivo, Wistar Han rat; details: for Cmax / Tmax: male, plasma, Wistar Han rat, n = 5; for Cmax: read-out: Cmax of Compound (I) (double prodrug) in plasma; for Tmax: read-out: Tmax of Compound (I) (double prodrug) in plasma
# Procedure: Five male Wistar Han rats were administered a single oral dose of 100 or 200 mg/kg of compound (I) (either Form A or Form C). Drug was administered as a suspension in 2% klucel, 0.1% polysorbate 80 and 0.1% parabens in water. Samples were taken at various times up to 24 h and plasma was analysed for compound (I) (double prodrug), compound (Ia) (single prodrug) and compound (Ib) (single prodrug) and compound (III) (active Form).
# [4] = Solid form conversion in aqueous compositions; format: physicochemical
# Procedure: Form A as prepared in Example 10 was suspended in water to form a slurry at room temperature for 2 hours to afford Form B, then the solid was collected by filtration and dried under vacuum. Depending on the solvation status Form B can be a solvate, a hydrate or a polymorph of compound (I).
structure (smiles),measurement,setting,value
"CC[C@H](OC(C)=O)[C@@H]1C[C@@H](O)[C@H](n2c(=O)sc3cnc(N)nc32)O1 [Form A of compound (I), [(1S)-1-[(2S,4R,5R)-5-(5-amino-2-oxo-thiazolo[4,5-d]pyrimidin-3-yl)-4-hydroxy-tetrahydrofuran-2-yl]propyl] acetate]",Physical stability (solid form by XRPD compared with initial solid form),"[1]; listed as Example 10, Form A of compound (I)",no solid form change
same,Stability compared with Form Amorphous,[1],better stability
same,Solubility,"[2]; FaSSIF, listed as Example 10, Form A of compound (I)",6330 µg/mL
same,Solubility,"[2]; FeSSIF, listed as Example 10, Form A of compound (I)",7930 µg/mL
same,Solubility,"[2]; SGF, listed as Example 10, Form A of compound (I)",>16360 µg/mL
same,Solubility,"[2]; pH1 buffer, listed as Example 10, Form A of compound (I)",>16280 µg/mL
same,Solubility,"[2]; pH3 buffer, listed as Example 10, Form A of compound (I)",12870 µg/mL
same,Solubility,"[2]; pH5 buffer, listed as Example 10, Form A of compound (I)",6390 µg/mL
same,Solubility,"[2]; pH7 buffer, listed as Example 10, Form A of compound (I)",6240 µg/mL
same,Solubility,"[2]; pH9 buffer, listed as Example 10, Form A of compound (I)",6380 µg/mL
same,Conversion rate to the single prodrug in vivo,"[3]; Form A at 100 mg/kg compared with Form C at 200 mg/kg, in words",faster conversion rate
same,Cmax,[3]; PO 100 mg/kg,563 ng/mL
same,Tmax,[3]; PO 100 mg/kg,90 min
"CC[C@H](OC(C)=O)[C@@H]1C[C@@H](O)[C@H](n2c(=O)sc3cnc(N)nc32)O1 [Form Amorphous of compound (I), [(1S)-1-[(2S,4R,5R)-5-(5-amino-2-oxo-thiazolo[4,5-d]pyrimidin-3-yl)-4-hydroxy-tetrahydrofuran-2-yl]propyl] acetate]",Physical stability (solid form by XRPD compared with initial solid form),"[1]; listed as Example 1, Form Amorphous of compound (I)",solid form change
same,Tendency to form change,[1]; general finding in words,prone to crystallization
same,Solubility,"[2]; FaSSIF, listed as Example 1, Form Amorphous of compound (I)",6930 µg/mL
same,Solubility,"[2]; FeSSIF, listed as Example 1, Form Amorphous of compound (I)",7350 µg/mL
same,solubility at 24 h,"[2]; SGF, simulated gastric fluid",> 10000 µg/mL
same,solubility at 24 h,"[2]; pH 1 buffer, pH 1, simulated gastric fluid, pH1 buffer",> 10000 µg/mL
same,Solubility,"[2]; pH3 buffer, listed as Example 1, Form Amorphous of compound (I)",9570 µg/mL
same,Solubility,"[2]; pH5 buffer, listed as Example 1, Form Amorphous of compound (I)",3830 µg/mL
same,Solubility,"[2]; pH7 buffer, listed as Example 1, Form Amorphous of compound (I)",4050 µg/mL
same,Solubility,"[2]; pH9 buffer, listed as Example 1, Form Amorphous of compound (I)",5030 µg/mL
"CC[C@H](OC(C)=O)[C@@H]1C[C@@H](O)[C@H](n2c(=O)sc3cnc(N)nc32)O1 [Form B of compound (I), [(1S)-1-[(2S,4R,5R)-5-(5-amino-2-oxo-thiazolo[4,5-d]pyrimidin-3-yl)-4-hydroxy-tetrahydrofuran-2-yl]propyl] acetate]",Physical stability (solid form by XRPD compared with initial solid form),"[1]; listed as Example 11, Form B of compound (I)",no solid form change
same,Stability compared with Form Amorphous,[1],better stability
same,Solubility,"[2]; FaSSIF, listed as Example 11, Form B of compound (I)",3820 µg/mL
same,Solubility,"[2]; FeSSIF, listed as Example 11, Form B of compound (I)",4130 µg/mL
same,Solubility,"[2]; SGF, listed as Example 11, Form B of compound (I)",>10000 µg/mL
same,Solubility,"[2]; pH1 buffer, listed as Example 11, Form B of compound (I)",>10000 µg/mL
same,Solubility,"[2]; pH3 buffer, listed as Example 11, Form B of compound (I)",6920 µg/mL
same,Solubility,"[2]; pH5 buffer, listed as Example 11, Form B of compound (I)",3350 µg/mL
same,Solubility,"[2]; pH7 buffer, listed as Example 11, Form B of compound (I)",3400 µg/mL
same,Solubility,"[2]; pH9 buffer, listed as Example 11, Form B of compound (I)",3550 µg/mL
same,Solid form conversion / stability in aqueous environment,[4],better stability in aqueous environment
"CC[C@H](OC(C)=O)[C@@H]1C[C@@H](O)[C@H](n2c(=O)sc3cnc(N)nc32)O1 [Form C of compound (I), [(1S)-1-[(2S,4R,5R)-5-(5-amino-2-oxo-thiazolo[4,5-d]pyrimidin-3-yl)-4-hydroxy-tetrahydrofuran-2-yl]propyl] acetate]",Physical stability (solid form by XRPD compared with initial solid form),"[1]; listed as Example 2, Form C of compound (I)",no solid form change
same,Stability compared with Form Amorphous,[1],significantly improved stability
same,Stability compared with Form Amorphous,[1]; listed as Form C,better stability
same,Solubility,"[2]; FaSSIF, listed as Example 2, Form C of compound (I)",2190 µg/mL
same,Solubility,"[2]; FeSSIF, listed as Example 2, Form C of compound (I)",2780 µg/mL
same,Solubility,"[2]; SGF, listed as Example 2, Form C of compound (I)",>10000 µg/mL
same,Apparent solubility compared with Form Amorphous,[2],comparable apparent solubility
same,Solubility,"[2]; pH1 buffer, listed as Example 2, Form C of compound (I)",>10000 µg/mL
same,Solubility,"[2]; pH3 buffer, listed as Example 2, Form C of compound (I)",4980 µg/mL
same,Solubility,"[2]; pH5 buffer, listed as Example 2, Form C of compound (I)",2240 µg/mL
same,Solubility,"[2]; pH7 buffer, listed as Example 2, Form C of compound (I)",2190 µg/mL
same,Solubility,"[2]; pH9 buffer, listed as Example 2, Form C of compound (I)",2320 µg/mL
same,Cmax,[3]; PO 200 mg/kg,259 ng/mL
same,Tmax,[3]; PO 200 mg/kg,19.8 min
"CC[C@H](OC(C)=O)[C@@H]1C[C@@H](O)[C@H](n2c(=O)sc3cnc(N)nc32)O1 [Form G of compound (I), [(1S)-1-[(2S,4R,5R)-5-(5-amino-2-oxo-thiazolo[4,5-d]pyrimidin-3-yl)-4-hydroxy-tetrahydrofuran-2-yl]propyl] acetate]",Physical stability (solid form by XRPD compared with initial solid form),"[1]; listed as Example 12, Form G of compound (I)",no solid form change
same,Stability compared with Form Amorphous,[1],improved stability
same,Stability compared with Form Amorphous,[1]; listed as Form G,better stability
same,Solubility,"[2]; FaSSIF, listed as Example 12, Form G of compound (I)",2490 µg/mL
same,Solubility,"[2]; FeSSIF, listed as Example 12, Form G of compound (I)",2790 µg/mL
same,Solubility,"[2]; SGF, listed as Example 12, Form G of compound (I)",>10000 µg/mL
same,Apparent solubility compared with Form Amorphous,[2],comparable apparent solubility
same,Solubility,"[2]; pH1 buffer, listed as Example 12, Form G of compound (I)",>10000 µg/mL
same,Solubility,"[2]; pH3 buffer, listed as Example 12, Form G of compound (I)",6440 µg/mL
same,Solubility,"[2]; pH5 buffer, listed as Example 12, Form G of compound (I)",3750 µg/mL
same,Solubility,"[2]; pH7 buffer, listed as Example 12, Form G of compound (I)",3700 µg/mL
same,Solubility,"[2]; pH9 buffer, listed as Example 12, Form G of compound (I)",3640 µg/mL
